Source: PubChem BioAssay AID1259407 (Chemical Carcinogenesis Research Information System (CCRIS), 2018)
Calls of active or inactive are those of the source. How the calls were made is not given here.

Tested on: CCRIS mutagenicity, Ames/micronucleus/aberration tests
Assay: CCRIS mutagenicity studies

## ClC(Cl)=C(Cl)Cl
End Point: IN VITRO CHROMOSOMAL ABERRATIONS, Test System: CHINESE HAMSTER OVARY CELLS, Metabolic Activation: NONE
  mutagenic call: inactive; negative
End Point: IN VITRO CHROMOSOMAL ABERRATIONS, Test System: CHINESE HAMSTER OVARY CELLS, Metabolic Activation: RAT, LIVER, S-9, AROCLOR 1254
  mutagenic call: inactive; negative
End Point: IN VITRO CHROMOSOMAL ABERRATIONS, Test System: CHL/IU CELLS, Metabolic Activation: NONE
  mutagenic call: inactive; negative
End Point: IN VITRO CHROMOSOMAL ABERRATIONS, Test System: CHO CELLS, Metabolic Activation: NONE
  mutagenic call: inactive; negative
End Point: IN VITRO CHROMOSOMAL ABERRATIONS, Test System: CHO CELLS, Metabolic Activation: RAT, LIVER, S-9, AROCLOR 1254
  mutagenic call: inactive; negative
End Point: IN VITRO MICRONUCLEUS, Test System: CHL/IU CELLS, Metabolic Activation: NONE
  mutagenic call: inactive; negative
Test System: AMES SALMONELLA TYPHIMURIUM, Strain/Indicator: TA98, Metabolic Activation: HAMSTER, LIVER, S-9, AROCLOR 1254, Method: PREINCUBATION
  mutagenic call: inactive; negative
Test System: AMES SALMONELLA TYPHIMURIUM, Strain/Indicator: TA98, Metabolic Activation: NONE, Method: PREINCUBATION
  mutagenic call: inactive; negative
Test System: AMES SALMONELLA TYPHIMURIUM, Strain/Indicator: TA98, Metabolic Activation: NONE, Method: STANDARD PLATE
  mutagenic call: inactive; negative
Test System: AMES SALMONELLA TYPHIMURIUM, Strain/Indicator: TA98, Metabolic Activation: RAT, LIVER, S-9, AROCLOR 1254, Method: PREINCUBATION
  mutagenic call: inactive; negative
Test System: AMES SALMONELLA TYPHIMURIUM, Strain/Indicator: TA98, Metabolic Activation: RAT, LIVER, S-9, AROCLOR, Method: STANDARD PLATE
  mutagenic call: inactive; negative
Test System: AMES SALMONELLA TYPHIMURIUM, Strain/Indicator: TA100, Metabolic Activation: HAMSTER, LIVER, S-9, AROCLOR 1254, Method: PREINCUBATION
  mutagenic call: inactive; negative
Test System: AMES SALMONELLA TYPHIMURIUM, Strain/Indicator: TA100, Metabolic Activation: HAMSTER, LIVER, S-9, SODIUM PHENOBARBITAL, Method: STANDARD PLATE (SEALED PLATE)
  mutagenic call: inactive; negative
Test System: AMES SALMONELLA TYPHIMURIUM, Strain/Indicator: TA100, Metabolic Activation: MOUSE, LIVER, S-9, SODIUM PHENOBARBITAL, Method: STANDARD PLATE (SEALED PLATE)
  mutagenic call: inactive; negative
Test System: AMES SALMONELLA TYPHIMURIUM, Strain/Indicator: TA100, Metabolic Activation: NONE, Method: BAG VAPORIZATION
  mutagenic call: inactive; negative
Test System: AMES SALMONELLA TYPHIMURIUM, Strain/Indicator: TA100, Metabolic Activation: NONE, Method: PREINCUBATION
  mutagenic call: inactive; negative
Test System: AMES SALMONELLA TYPHIMURIUM, Strain/Indicator: TA100, Metabolic Activation: NONE, Method: SPOT
  mutagenic call: active; positive
Test System: AMES SALMONELLA TYPHIMURIUM, Strain/Indicator: TA100, Metabolic Activation: NONE, Method: STANDARD PLATE
  mutagenic call: inactive; negative
Test System: AMES SALMONELLA TYPHIMURIUM, Strain/Indicator: TA100, Metabolic Activation: NONE, Method: STANDARD PLATE (SEALED PLATE)
  mutagenic call: inactive; negative
Test System: AMES SALMONELLA TYPHIMURIUM, Strain/Indicator: TA100, Metabolic Activation: RAT, KIDNEY, MICROSOMES AND RAT, LIVER, GLUTATHIONE AND GLUTATHIONE TRANSFERASE, Method: PREINCUBATION
  mutagenic call: active; positive
Test System: AMES SALMONELLA TYPHIMURIUM, Strain/Indicator: TA100, Metabolic Activation: RAT, LIVER, S-9, AROCLOR 1254, Method: BAG VAPORIZATION
  mutagenic call: inactive; negative
Test System: AMES SALMONELLA TYPHIMURIUM, Strain/Indicator: TA100, Metabolic Activation: RAT, LIVER, S-9, AROCLOR 1254, Method: PREINCUBATION
  mutagenic call: inactive; negative
Test System: AMES SALMONELLA TYPHIMURIUM, Strain/Indicator: TA100, Metabolic Activation: RAT, LIVER, S-9, AROCLOR, Method: STANDARD PLATE
  mutagenic call: inactive; negative
Test System: AMES SALMONELLA TYPHIMURIUM, Strain/Indicator: TA100, Metabolic Activation: RAT, LIVER, S-9, SODIUM PHENOBARBITAL, Method: STANDARD PLATE (SEALED PLATE)
  mutagenic call: inactive; negative
Test System: AMES SALMONELLA TYPHIMURIUM, Strain/Indicator: TA102, Metabolic Activation: MOUSE, LIVER, S-9, SODIUM PHENOBARBITAL, Method: STANDARD PLATE (SEALED PLATE)
  mutagenic call: inactive; negative
Test System: AMES SALMONELLA TYPHIMURIUM, Strain/Indicator: TA102, Metabolic Activation: NONE, Method: STANDARD PLATE (SEALED PLATE)
  mutagenic call: inactive; negative
Test System: AMES SALMONELLA TYPHIMURIUM, Strain/Indicator: TA102, Metabolic Activation: S-9, Method: STANDARD PLATE
  mutagenic call: inactive; negative
Test System: AMES SALMONELLA TYPHIMURIUM, Strain/Indicator: TA104, Metabolic Activation: MOUSE, LIVER, S-9, SODIUM PHENOBARBITAL, Method: STANDARD PLATE (SEALED PLATE)
  mutagenic call: inactive; negative
Test System: AMES SALMONELLA TYPHIMURIUM, Strain/Indicator: TA104, Metabolic Activation: NONE, Method: STANDARD PLATE (SEALED PLATE)
  mutagenic call: inactive; negative
Test System: AMES SALMONELLA TYPHIMURIUM, Strain/Indicator: TA1535, Metabolic Activation: HAMSTER, LIVER, S-9, AROCLOR 1254, Method: PREINCUBATION
  mutagenic call: inactive; negative
Test System: AMES SALMONELLA TYPHIMURIUM, Strain/Indicator: TA1535, Metabolic Activation: MOUSE, LIVER, S-9, SODIUM PHENOBARBITAL, Method: STANDARD PLATE (SEALED PLATE)
  mutagenic call: inactive; negative
Test System: AMES SALMONELLA TYPHIMURIUM, Strain/Indicator: TA1535, Metabolic Activation: NONE, Method: PREINCUBATION
  mutagenic call: inactive; negative
Test System: AMES SALMONELLA TYPHIMURIUM, Strain/Indicator: TA1535, Metabolic Activation: NONE, Method: STANDARD PLATE (SEALED PLATE)
  mutagenic call: inactive; negative
Test System: AMES SALMONELLA TYPHIMURIUM, Strain/Indicator: TA1535, Metabolic Activation: RAT, LIVER, S-9, AROCLOR 1254, Method: PREINCUBATION
  mutagenic call: inactive; negative
Test System: AMES SALMONELLA TYPHIMURIUM, Strain/Indicator: TA1537, Metabolic Activation: HAMSTER, LIVER, S-9, AROCLOR 1254, Method: PREINCUBATION
  mutagenic call: inactive; negative
Test System: AMES SALMONELLA TYPHIMURIUM, Strain/Indicator: TA1537, Metabolic Activation: NONE, Method: PREINCUBATION
  mutagenic call: inactive; negative
Test System: AMES SALMONELLA TYPHIMURIUM, Strain/Indicator: TA1537, Metabolic Activation: RAT, LIVER, S-9, AROCLOR 1254, Method: PREINCUBATION
  mutagenic call: inactive; negative
Test System: AMES SALMONELLA TYPHIMURIUM, Strain/Indicator: TA2638, Metabolic Activation: S-9, Method: STANDARD PLATE
  mutagenic call: inactive; negative
Test System: AMES SALMONELLA TYPHIMURIUM, Strain/Indicator: UTH8413, Metabolic Activation: NONE, Method: STANDARD PLATE
  mutagenic call: inactive; negative
Test System: AMES SALMONELLA TYPHIMURIUM, Strain/Indicator: UTH8413, Metabolic Activation: RAT, LIVER, S-9, AROCLOR, Method: STANDARD PLATE
  mutagenic call: inactive; negative
Test System: AMES SALMONELLA TYPHIMURIUM, Strain/Indicator: UTH8414, Metabolic Activation: NONE, Method: STANDARD PLATE
  mutagenic call: inactive; negative
Test System: AMES SALMONELLA TYPHIMURIUM, Strain/Indicator: UTH8414, Metabolic Activation: RAT, LIVER, S-9, AROCLOR, Method: STANDARD PLATE
  mutagenic call: inactive; negative
Test System: Ames Salmonella typhimurium, Strain/Indicator: TA98, Metabolic Activation: None, Method: Gas exposure method
  mutagenic call: inactive; negative (two experiments)
Test System: Ames Salmonella typhimurium, Strain/Indicator: TA98, Metabolic Activation: Rat, Liver, S9, Sodium phenobarbital and 5,6-benzoflavone (10%), Method: Gas exposure method
  mutagenic call: inactive; negative (two experiments)
Test System: Ames Salmonella typhimurium, Strain/Indicator: TA100, Metabolic Activation: None, Method: Gas exposure method
  mutagenic call: inactive; negative (two experiments)
Test System: Ames Salmonella typhimurium, Strain/Indicator: TA100, Metabolic Activation: Rat, Liver, S9, Sodium phenobarbital and 5,6-benzoflavone (10%), Method: Gas exposure method
  mutagenic call: inactive; negative (two experiments)
Test System: Ames Salmonella typhimurium, Strain/Indicator: TA1535, Metabolic Activation: None, Method: Gas exposure method
  mutagenic call: active; positive (two experiments)
Test System: Ames Salmonella typhimurium, Strain/Indicator: TA1535, Metabolic Activation: Rat, Liver, S9, Sodium phenobarbital and 5,6-benzoflavone (10%), Method: Gas exposure method
  mutagenic call: active; positive (two experiments)
Test System: Ames Salmonella typhimurium, Strain/Indicator: TA1537, Metabolic Activation: None, Method: Gas exposure method
  mutagenic call: inactive; negative (two experiments)
Test System: Ames Salmonella typhimurium, Strain/Indicator: TA1537, Metabolic Activation: Rat, Liver, S9, Sodium phenobarbital and 5,6-benzoflavone (10%), Method: Gas exposure method
  mutagenic call: inactive; negative (two experiments)
Test System: CHO/HGPRT, Strain/Indicator: CHO/GIEMSA, Metabolic Activation: NONE, Method: STANDARD PLATE
  mutagenic call: inactive; negative
Test System: CHO/HGPRT, Strain/Indicator: CHO/GIEMSA, Metabolic Activation: RAT, LIVER, S-9, AROCLOR 1254, Method: STANDARD PLATE
  mutagenic call: inactive; negative
Test System: E. COLI, Strain/Indicator: WP2 (PKM101), Metabolic Activation: S-9, Method: STANDARD PLATE
  mutagenic call: inactive; negative
Test System: E. COLI, Strain/Indicator: WP2 UVRA (PKM101), Metabolic Activation: S-9, Method: STANDARD PLATE
  mutagenic call: inactive; negative
Test System: E. coli, Strain/Indicator: WP2uvrA/pKM101, Metabolic Activation: None, Method: Gas exposure method
  mutagenic call: inactive; negative (two experiments)
Test System: E. coli, Strain/Indicator: WP2uvrA/pKM101, Metabolic Activation: Rat, Liver, S9, Sodium phenobarbital and 5,6-benzoflavone (10%), Method: Gas exposure method
  mutagenic call: inactive; negative (two experiments)
Test System: MOUSE LYMPHOMA, Strain/Indicator: L5178Y (TK+/TK-), Metabolic Activation: NONE, Method: SUSPENSION/PLATE
  mutagenic call: inactive; negative
Test System: MOUSE LYMPHOMA, Strain/Indicator: L5178Y (TK+/TK-), Metabolic Activation: RAT, LIVER, S-9, AROCLOR 1254, Method: SUSPENSION/PLATE
  mutagenic call: inactive; negative
